From patent publication US7183306B2, “Pyrazole derivatives” (Astellas Pharma Inc., priority 2002, dated 2007)

Columns and labels:
[1] = tested on: arthritic rats (adjuvant arthritis); assay: Analgesic activity: effect on adjuvant arthritis in rats (Randall-Selitto pain threshold); format: in vivo, Lewis rats; details: Rattus norvegicus, single dose, pain threshold of left hind paw 2 hrs after administration, threshold pressure of treated vs non-treated rats, ratio of 1.5 considered effective, read-out: The coefficient of analgesic
[2] = biological target: T1, COX-I (Homo sapiens, UniProt P23219); assay: Whole blood assay for COX-I (TXB2 production); format: cell-based
T1 construct: Fresh blood was collected by syringe without anticoagulants from volunteers with consent; from tissue; host or cells: fresh human whole blood from volunteers, allowed to clot
Procedure: [B] Inhibiting Activity Against COX-I and COX-II (Whole Blood Assay) (i) Test Metho: Whole Blood Assay for COX-I
Fresh blood was collected by syringe without anticoagulants from volunteers with consent. The subjects had no apparent inflammatory conditions and had not taken any medication for at least 7 days prior to blood collection.
500 μl Aliquots of human whole blood were immediately incubated with 2 μl of either dimethyl sulfoxide vehicle or a test compound at final concentrations for 1 hr at 37° C. to allow the blood to clot. Appropriate treatments (no incubation) were used as blanks. At the end of the incubation, 5 μl of 250 mM Indomethacin was added to stop the reaction. The blood was centrifuged at 6000×g for 5 min at 4° C. to obtain serum. A 100 μl aliquot of serum was mixed with 400 μl methanol for protein precipitation. The supernatant was obtained by centrifuging at 6000×g for 5 min at 4° C. and was assayed for TXB2 using an enzyme immunoassay kit according to the manufacturer's procedure. For a test compound, the results were expressed as percent inhibition of thromboxane B2(TXB2) production relative to control incubations containing dimethyl sulfoxide vehicle.
The data were analyzed by that a test compound at the indicated concentrations was changed log value and was applied simple linear regression. IC50 value was calculated by least squares method.

[3] = biological target: T2, COX-II (Homo sapiens, UniProt P35354); assay: Whole blood assay for COX-II (LPS-induced PGE2 production); format: cell-based; details: LPS 24 hrs at 37° C., inhibition of PGE2 production
T2 construct: incubation of the blood with 10 μl of 5 mg/ml lipopolysaccharide for 24 hrs at 37° C. for induction of COX-II; from tissue; host or cells: heparinized fresh human whole blood from volunteers, LPS-stimulated
T2 sequence (P35354 18-604): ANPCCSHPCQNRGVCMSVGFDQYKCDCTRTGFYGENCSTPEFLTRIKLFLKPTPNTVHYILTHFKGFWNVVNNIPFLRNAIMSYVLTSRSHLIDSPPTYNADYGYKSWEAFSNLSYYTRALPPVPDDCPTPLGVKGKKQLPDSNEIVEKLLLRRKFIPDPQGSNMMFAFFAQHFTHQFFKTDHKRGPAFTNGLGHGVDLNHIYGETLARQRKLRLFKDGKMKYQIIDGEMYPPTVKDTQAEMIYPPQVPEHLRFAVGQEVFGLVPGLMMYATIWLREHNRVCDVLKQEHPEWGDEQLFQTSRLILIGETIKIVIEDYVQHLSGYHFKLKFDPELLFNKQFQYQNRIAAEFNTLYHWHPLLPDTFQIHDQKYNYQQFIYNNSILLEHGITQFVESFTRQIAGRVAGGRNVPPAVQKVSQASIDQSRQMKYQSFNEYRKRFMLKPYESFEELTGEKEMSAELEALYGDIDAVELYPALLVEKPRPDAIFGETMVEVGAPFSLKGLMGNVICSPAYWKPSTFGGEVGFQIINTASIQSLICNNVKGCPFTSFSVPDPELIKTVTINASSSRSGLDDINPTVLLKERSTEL
Procedure: Whole Blood Assay for COX-II
Fresh blood was collected in heparinized tubes by syringe from volunteers with consent. The subjects had no apparent inflammatory conditions and had not taken any medication for at least 7 days prior to blood collection.
500 μl aliquots of human whole blood were incubated with either 2 μl dimethyl sulfoxide vehicle or 2 μl of a test compound at final concentrations for 15 min at 37° C. This was followed by incubation of the blood with 10 μl of 5 mg/ml lipopolysaccharide for 24 hrs at 37° C. for induction of COX-II. Appropriate PBS treatments (no LPS) were used as blanks. At the end of the incubation, the blood was centrifuged at 6000×g for 5 min at 4° C. to obtain plasma. A 100 μl aliquot of plasma was mixed with 400 μl methanol for protein precipitation. The supernatant was obtained by centrifuging at 6000×g for 5 min at 4° C. and was assayed for prostaglandin E2 (PGE2) using a radioimmunoassay kit after conversion of PGE2 to its methyl oximate derivative according to the manufacturer's procedure.
For a test compound, the results were expressed as percent inhibition of PGE2 production relative to control incubations containing dimethyl sulfoxide vehicle. The data were analyzed by that a test compound at the indicated concentrations was changed log value and was applied simple linear regression. IC50 value was calculated by least squares method.

T1 sequence (P23219 24-599): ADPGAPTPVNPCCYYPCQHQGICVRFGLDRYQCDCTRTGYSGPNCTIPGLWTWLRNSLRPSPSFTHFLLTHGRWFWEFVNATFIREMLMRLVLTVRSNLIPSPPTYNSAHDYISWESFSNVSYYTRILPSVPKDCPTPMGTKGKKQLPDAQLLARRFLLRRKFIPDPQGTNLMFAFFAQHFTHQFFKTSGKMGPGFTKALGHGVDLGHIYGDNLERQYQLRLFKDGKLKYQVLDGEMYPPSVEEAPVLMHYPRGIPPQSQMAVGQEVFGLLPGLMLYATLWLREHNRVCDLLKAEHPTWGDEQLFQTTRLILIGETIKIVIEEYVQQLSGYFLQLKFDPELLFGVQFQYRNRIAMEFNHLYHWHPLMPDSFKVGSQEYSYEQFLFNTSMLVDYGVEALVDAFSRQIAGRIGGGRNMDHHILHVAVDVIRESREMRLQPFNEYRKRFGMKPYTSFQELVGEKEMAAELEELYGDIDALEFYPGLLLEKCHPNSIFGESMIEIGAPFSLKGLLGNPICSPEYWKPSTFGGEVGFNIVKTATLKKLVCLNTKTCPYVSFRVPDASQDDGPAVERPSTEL

IC50 [2] [nM] | IC50 [3] [nM] | melting point [°C] | Structure (SMILES) | response vs control in vivo at 3.2 mg/kg [1] [%]
< 10 | > 100 |  | COc1ccc(-n2nc(C(F)F)cc2-c2ccc(CNS(C)(=O)=O)cc2)cc1 [Example 61, N-{4-[3-(Difluoromethyl)-1-(4-methoxyphenyl)-1H-pyrazol-5-yl]benzyl}methanesulfonamide] | > 150
< 10 | > 100 | 150.8 to 151 | COc1ccc(-n2nc(C3CC3)cc2-c2ccc(OCCNC(N)=O)cc2)cc1 [Example 248] | ≥ 150
< 10 | > 100 | 141.5 to 142.1 | COc1ccc(-n2nc(C(F)F)cc2-c2ccc(OCCNC(N)=O)cc2)cn1 [Example 250] | ≥ 150
< 10 | > 100 | 144.8 to 145.4 | COc1ccc(-n2nc(Cl)cc2-c2ccc(OCCNC(N)=O)cc2)cc1 [Example 28, N-(2-{4-[3-Chloro-1-(4-methoxyphenyl)-1H-pyrazol-5-yl]-phenoxy}ethyl)urea] | > 150
< 10 | > 100 |  | COc1ccc(C2N=C(C(F)F)C=C2c2ccc(OCCNC(N)=O)cc2)cc1 (centres unmarked) [Example 181] | ≥ 150
< 10 | > 100 | 109.8 to 110.2 | COc1ccc(-n2nc(C(F)(F)F)cc2-c2ccc(OCCNC(C)=O)cc2)cc1 [Example 254] | ≥ 150
< 10 | > 100 |  | COc1ccc(-n2nc(C(F)(F)F)cc2-c2ccc(OCCNC(N)=O)cc2)cc1 [Example 240] | ≥ 150
< 10 | > 100 | 114.7 to 115.5 | COc1ccc(-n2nc(Cl)cc2-c2ccc(OCCO)cc2)cc1 [Example 23, 2-{4-[3-Chloro-1-(4-methoxyphenyl)-1H-pyrazol-5-yl]-phenoxy}ethanol] | > 150
